# Test results published in ChEMBL document CHEMBL1201862, “PubChem BioAssay data set” (2004).
# The source made the active and inactive calls.
# Tests used:
# [1] = molecular target: T1, Alkaline phosphatase, tissue-nonspecific isozyme (Homo sapiens, UniProt P05186)
# T1 sequence (P05186 whole entry): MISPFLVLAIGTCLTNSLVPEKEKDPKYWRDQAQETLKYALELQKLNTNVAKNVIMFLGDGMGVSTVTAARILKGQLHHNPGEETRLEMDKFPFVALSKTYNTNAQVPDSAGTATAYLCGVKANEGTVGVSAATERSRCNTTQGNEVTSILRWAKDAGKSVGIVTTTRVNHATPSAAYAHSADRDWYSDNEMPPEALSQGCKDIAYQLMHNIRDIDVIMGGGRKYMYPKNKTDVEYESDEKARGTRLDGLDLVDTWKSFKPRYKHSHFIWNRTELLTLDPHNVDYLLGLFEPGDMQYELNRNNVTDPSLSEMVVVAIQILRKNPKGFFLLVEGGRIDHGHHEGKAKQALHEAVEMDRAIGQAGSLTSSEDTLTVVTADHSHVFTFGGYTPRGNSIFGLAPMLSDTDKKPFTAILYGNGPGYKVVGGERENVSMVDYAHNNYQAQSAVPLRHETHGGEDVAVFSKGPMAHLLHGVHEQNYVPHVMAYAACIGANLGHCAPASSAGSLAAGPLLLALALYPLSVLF
# [2] = molecular target: T2, Replicative DNA helicase DnaB (Mycobacterium tuberculosis, UniProt P9WMR3); test: DnaB intein splicing inhibitors, dose response, biochemical, cell-free fluorescence (AID 449749); type: functional
# T2 sequence (P9WMR3 whole entry): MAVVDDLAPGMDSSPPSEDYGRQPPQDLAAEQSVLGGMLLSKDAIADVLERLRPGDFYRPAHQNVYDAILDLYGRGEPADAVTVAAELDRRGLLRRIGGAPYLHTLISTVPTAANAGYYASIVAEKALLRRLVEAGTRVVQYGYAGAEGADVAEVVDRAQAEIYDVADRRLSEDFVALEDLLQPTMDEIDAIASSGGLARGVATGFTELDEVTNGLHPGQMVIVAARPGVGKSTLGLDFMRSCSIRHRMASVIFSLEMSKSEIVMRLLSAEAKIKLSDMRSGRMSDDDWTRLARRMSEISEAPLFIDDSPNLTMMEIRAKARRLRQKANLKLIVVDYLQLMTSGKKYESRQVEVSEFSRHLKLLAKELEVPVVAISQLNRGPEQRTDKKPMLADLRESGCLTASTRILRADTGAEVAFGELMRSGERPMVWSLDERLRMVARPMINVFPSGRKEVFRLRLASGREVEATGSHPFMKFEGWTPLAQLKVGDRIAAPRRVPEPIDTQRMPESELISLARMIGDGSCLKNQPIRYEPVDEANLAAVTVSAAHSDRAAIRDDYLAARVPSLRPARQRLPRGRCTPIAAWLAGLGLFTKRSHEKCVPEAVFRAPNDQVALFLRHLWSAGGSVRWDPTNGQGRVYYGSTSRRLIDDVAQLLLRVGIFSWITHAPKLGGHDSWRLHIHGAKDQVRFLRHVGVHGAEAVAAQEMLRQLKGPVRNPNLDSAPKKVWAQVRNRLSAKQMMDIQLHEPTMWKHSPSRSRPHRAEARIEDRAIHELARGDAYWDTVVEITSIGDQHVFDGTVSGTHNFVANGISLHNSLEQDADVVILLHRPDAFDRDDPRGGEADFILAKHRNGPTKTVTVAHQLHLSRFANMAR
# [3] = molecular target: T3, Protein RecA (Mycobacterium tuberculosis, UniProt P9WHJ3); test: Fluorescence Cell-Free Homogeneous Dose Retest to Identify Inhibitors of RecA-Intein Splicing Activity. [Related pubchem assays (depositor defined):AID2097, AID2223, AID489010, AID492950]; type: functional
# T3 sequence (P9WHJ3 whole entry): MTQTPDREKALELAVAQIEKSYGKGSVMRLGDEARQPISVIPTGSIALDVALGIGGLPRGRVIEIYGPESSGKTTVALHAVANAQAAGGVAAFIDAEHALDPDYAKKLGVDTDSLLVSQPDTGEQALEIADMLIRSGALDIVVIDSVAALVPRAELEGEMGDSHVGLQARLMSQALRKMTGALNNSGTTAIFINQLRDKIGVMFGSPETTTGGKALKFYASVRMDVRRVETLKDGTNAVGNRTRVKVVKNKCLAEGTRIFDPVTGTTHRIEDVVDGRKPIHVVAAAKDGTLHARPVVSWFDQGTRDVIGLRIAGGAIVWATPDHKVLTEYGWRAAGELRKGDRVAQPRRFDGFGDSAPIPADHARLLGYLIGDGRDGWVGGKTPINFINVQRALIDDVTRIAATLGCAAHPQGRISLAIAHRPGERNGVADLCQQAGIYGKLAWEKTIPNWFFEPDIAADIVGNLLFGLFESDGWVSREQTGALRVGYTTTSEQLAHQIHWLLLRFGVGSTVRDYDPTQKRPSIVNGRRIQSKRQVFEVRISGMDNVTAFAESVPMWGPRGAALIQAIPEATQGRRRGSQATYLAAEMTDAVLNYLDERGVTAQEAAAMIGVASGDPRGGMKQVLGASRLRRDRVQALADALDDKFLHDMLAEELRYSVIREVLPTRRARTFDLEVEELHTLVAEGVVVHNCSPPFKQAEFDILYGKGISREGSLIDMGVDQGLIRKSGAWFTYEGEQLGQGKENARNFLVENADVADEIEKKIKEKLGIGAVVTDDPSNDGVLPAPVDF
# [4] = luciferase reporter signal suppression in cells – H4 neuroglioma cells, luminescence, dose response (AID 1990); type: functional, cell-based
# [5] = test system: BJ; test: BJ-TERT fibroblast viability loss – cell-based, RAS-independent, luminescence, dose response (AID 1933); type: functional; conditions: Homo sapiens
# [6] = Luminescence Cell-Based Dose Response HTS to Identify Inhibitors of 5'UTR Stem-Loop Driven Prion Protein mRNA Translation in H4 Neuroglioblastoma Cells. [Related pubchem assays: 1827 (Project Summary), 1813 (Primary HTS)]; type: functional
# [7] = alpha-synuclein stem-loop luciferase translation blockers – H4 neuroglioma cells, luminescence, confirmation (AID 1988); type: functional, cell-based
# [8] = test system: BJ; test: cells; type: functional, cell-based; conditions: Homo sapiens
# [9] = Luminescence-based dose response cell-based high throughput screening assay for cytotoxic compounds using the IEC-6 intestinal epithelial cell line. [Related pubchem assays: 1858 (Summary AID.), 1825 (Counterscreen.), 1907 (Confirmation screen.)]; type: functional
# [10] = test system: BJ; test: BJ-TERT-LT-ST fibroblast viability loss – cell-based, RAS-independent, luminescence, dose response (AID 1935); type: functional; conditions: Homo sapiens;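 note: BJ fibroblasts immortalized with TERT plus LT and ST oncogenes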
# [11] = DRD fibroblast viability loss – cell-based, non-viral oncogenic, luminescence, dose response (AID 1934); type: functional; conditions: Homo sapiens
# [12] = HEK-293T viability loss after treatment – luminescence, T-cell screen hits, cytotoxicity control for TCR NF-kB inhibitor project, dose response (AID 489026); type: functional, cell-based;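 note: cells exposed to compound about 14 hours before the viability readout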
# [13] = test system: BJ; test: growth inhibition of engineered Ras-driven BJ cells – cell-based, alamar blue fluorescence, cherrypicked samples, dose response (AID 2631); type: functional; conditions: Homo sapiens;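 note: confirmatory dose-response assay in RAS-dependent BJ fibroblasts engineered with TERT, LT and ST, with cytotoxicity read by fluorescence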
# [14] = molecular target: Paired box protein Pax-8 (Homo sapiens, UniProt Q06710); test: PAX8 transcriptional activity inhibition in RMG-I – RMG-I cells, luciferase, cherry-pick, dose response (AID 687027); type: functional, cell-based;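 note: luciferase reporter driven by Pax8 target thyroperoxidase promoter measured by SteadyGlo luminescence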
# [15] = molecular target: T4, Galanin receptor type 2 (Homo sapiens, UniProt O43603); test: Dose Response cell-based high-throughput screening assay to identify antagonists of galanin receptor 2 (GALR2). [Related pubchem assays: 828, 866 ]; type: functional
# T4 sequence (O43603 whole entry): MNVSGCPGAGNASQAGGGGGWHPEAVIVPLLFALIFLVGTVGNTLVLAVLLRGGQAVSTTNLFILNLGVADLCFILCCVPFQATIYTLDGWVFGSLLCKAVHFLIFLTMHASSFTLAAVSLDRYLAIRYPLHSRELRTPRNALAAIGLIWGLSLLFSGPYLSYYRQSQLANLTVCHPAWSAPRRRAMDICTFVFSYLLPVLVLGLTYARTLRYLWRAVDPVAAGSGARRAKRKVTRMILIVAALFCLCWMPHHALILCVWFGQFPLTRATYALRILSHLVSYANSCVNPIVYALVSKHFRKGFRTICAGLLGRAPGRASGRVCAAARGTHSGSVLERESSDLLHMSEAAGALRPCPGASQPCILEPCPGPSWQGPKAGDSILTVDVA
# [16] = Trypanosoma cruzi growth suppression in host cells – NIH3T3 host cells, beta-gal luminescence, confirmation (AID 2044); type: functional, cell-based;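 note: intracellular parasites grown in NIH/3T3 mouse fibroblasts as host cells; luminescent beta-galactosidase reporter signal from transgenic T. cruzi replicating inside host cells; inhibitors lower the luminescence signal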
# [17] = NIH3T3 cell viability loss – ATP luminescence, mouse fibroblasts, counter-screen, dose response (AID 2010); type: functional, cell-based;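 note: cells exposed to compound for about 90 hours before reading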
# [18] = Luminescence Cell-Based Dose Retest to Confirm Inhibitors of Cancer Stem Cells. [Related pubchem assays (depositor defined):AID2717, AID2721]; type: functional, Homo sapiens; conditions: Homo sapiens
# [19] = test system: INS1; test: INS-1E survival protection against cytokine death – cell-based, luminescence, retest, dose response (AID 449756); type: functional; conditions: Rattus norvegicus;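 note: cell death triggered by IL-1 beta plus TNF-alpha plus IFN-gamma mixture; protective hits raise ATP signal compared with cytokine alone wells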
# [20] = reduction of Shn3 3'UTR-driven luciferase in osteoblasts – cell-based, Clone20 osteoblasts, firefly luciferase, cherry-picked, dose response (AID 624132); type: functional;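 note: firefly luciferase luminescence from reporter carrying the Shn3 3'UTR in osteoblasts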
# [21] = loss of viability in HepG2 cells – cell-based, CellTiter-Glo, cherry-picked, cytotoxicity control for Shn3 inhibitor project, dose response (AID 624134); type: functional
# [22] = non-specific 3'UTR reporter inhibition in Clone20-Shn3RL – cell-based, Renilla luciferase, cherry-picked, counter-screen for Shn3 inhibitor project, dose response (AID 624133); type: functional
# [23] = molecular target: Peroxisome proliferator-activated receptor gamma/Nuclear receptor coactivator 2 (Homo sapiens, UniProt P37231); type: functional;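 note: agonist potency for raising coactivator recruitment to the receptor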
# [24] = molecular target: Peroxisome proliferator-activated receptor gamma/Nuclear receptor coactivator 1 (Homo sapiens, UniProt P37231); type: functional;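 note: agonist potency as compounds enhance coactivator SRC-1 recruitment to PPARgamma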
# [25] = molecular target: Peroxisome proliferator-activated receptor gamma/Nuclear receptor coactivator 3 (Homo sapiens, UniProt P37231); type: functional;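 note: agonist potency for raising coactivator recruitment to the receptor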
# [26] = M. tuberculosis H37Rv growth inhibitors, H37Rv strain (AID 1626); type: functional
# [27] = luciferase reporter signal reduction – luminescence, H4-C neuroglioblastoma cells, dose response (AID 2458); type: functional, cell-based;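 note: H4 neuroglioblastoma cells stably carrying a luciferase reporter gene fusion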
# [28] = cells; type: functional, cell-based
# [29] = alpha-synuclein stem-loop translation blockers – luminescence, H4 neuroglioblastoma cells, dose confirmation, confirmation (AID 2454); type: functional, cell-based;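 note: H4 neuroglioblastoma cells carrying an alpha-synuclein 5'UTR luciferase reporter; potency for inhibition of the luciferase signal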
# [30] = cells
# [31] = test system: HEK293; test: inhibition of NOD1-driven NF-kB reporter – cell-based, luminescence, uHTS, primary screen (AID 1578); type: functional; conditions: Homo sapiens
# [32] = test system: HEK293; test: cells; type: functional, cell-based; conditions: Homo sapiens
# [33] = test system: HEK293; test: cells; type: functional, cell-based; conditions: Homo sapiens; remark: listed apart in the source
# [34] = molecular target: Nucleotide-binding oligomerization domain-containing protein 2 (Homo sapiens, UniProt Q9HC29); test: inhibition of NOD2-driven NF-kB reporter – cell-based, luminescence, uHTS, HEK293 (AID 1566); type: functional
# [35] = test system: HEK293; test: NOD2 signaling inhibitors in MDP-stimulated cells, cell-based, uHTS, luminescence (AID 2001); type: functional; conditions: Homo sapiens
# [36] = test system: HEK293; test: cells; type: functional, cell-based; conditions: Homo sapiens; remark: listed apart in the source
# [37] = HIV-1 AD8 envelope cell-cell fusion blockers – cherry-pick, dose response (AID 652062); type: functional, cell-based;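 note: luciferase signal from cell-cell fusion driven by HIV-1 clade B AD8 Env; potency is for inhibitors of fusion seen as a drop in luminescence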
# [38] = Luminescence Cell-Based Dose Confirmation HTS to Identify Inhibitors of Polyadenylation.; type: functional
# Chain of Paired box protein Pax-8 (Q06710 whole entry): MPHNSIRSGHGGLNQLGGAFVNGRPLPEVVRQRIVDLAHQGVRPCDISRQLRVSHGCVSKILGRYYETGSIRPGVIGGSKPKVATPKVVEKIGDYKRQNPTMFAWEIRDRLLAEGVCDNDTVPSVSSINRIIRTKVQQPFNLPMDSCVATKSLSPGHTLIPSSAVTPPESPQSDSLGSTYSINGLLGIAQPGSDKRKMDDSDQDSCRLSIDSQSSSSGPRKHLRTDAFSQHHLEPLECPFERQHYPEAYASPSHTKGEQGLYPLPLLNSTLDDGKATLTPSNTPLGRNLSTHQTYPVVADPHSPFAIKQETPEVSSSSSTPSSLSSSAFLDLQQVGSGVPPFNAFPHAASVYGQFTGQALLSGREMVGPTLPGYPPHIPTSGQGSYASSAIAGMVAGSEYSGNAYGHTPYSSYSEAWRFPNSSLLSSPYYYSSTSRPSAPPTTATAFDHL
# Chain of Peroxisome proliferator-activated receptor gamma/Nuclear receptor coactivator 3 (P37231 whole entry): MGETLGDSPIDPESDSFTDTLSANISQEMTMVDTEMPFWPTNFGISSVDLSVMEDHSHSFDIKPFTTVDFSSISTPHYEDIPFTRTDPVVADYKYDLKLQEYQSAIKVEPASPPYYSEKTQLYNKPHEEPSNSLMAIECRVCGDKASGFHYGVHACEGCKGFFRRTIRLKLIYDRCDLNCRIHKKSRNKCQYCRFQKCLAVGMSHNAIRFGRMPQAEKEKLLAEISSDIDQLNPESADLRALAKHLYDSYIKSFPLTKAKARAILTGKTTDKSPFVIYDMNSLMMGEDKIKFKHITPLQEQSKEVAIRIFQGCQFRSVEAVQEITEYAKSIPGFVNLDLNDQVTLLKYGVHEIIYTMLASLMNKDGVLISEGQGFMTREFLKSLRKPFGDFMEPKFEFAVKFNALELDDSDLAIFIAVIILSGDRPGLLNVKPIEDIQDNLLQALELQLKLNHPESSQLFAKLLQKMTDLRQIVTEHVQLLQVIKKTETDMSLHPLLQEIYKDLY
# Chain of Peroxisome proliferator-activated receptor gamma/Nuclear receptor coactivator 3 (Q9Y6Q9 whole entry, further chain): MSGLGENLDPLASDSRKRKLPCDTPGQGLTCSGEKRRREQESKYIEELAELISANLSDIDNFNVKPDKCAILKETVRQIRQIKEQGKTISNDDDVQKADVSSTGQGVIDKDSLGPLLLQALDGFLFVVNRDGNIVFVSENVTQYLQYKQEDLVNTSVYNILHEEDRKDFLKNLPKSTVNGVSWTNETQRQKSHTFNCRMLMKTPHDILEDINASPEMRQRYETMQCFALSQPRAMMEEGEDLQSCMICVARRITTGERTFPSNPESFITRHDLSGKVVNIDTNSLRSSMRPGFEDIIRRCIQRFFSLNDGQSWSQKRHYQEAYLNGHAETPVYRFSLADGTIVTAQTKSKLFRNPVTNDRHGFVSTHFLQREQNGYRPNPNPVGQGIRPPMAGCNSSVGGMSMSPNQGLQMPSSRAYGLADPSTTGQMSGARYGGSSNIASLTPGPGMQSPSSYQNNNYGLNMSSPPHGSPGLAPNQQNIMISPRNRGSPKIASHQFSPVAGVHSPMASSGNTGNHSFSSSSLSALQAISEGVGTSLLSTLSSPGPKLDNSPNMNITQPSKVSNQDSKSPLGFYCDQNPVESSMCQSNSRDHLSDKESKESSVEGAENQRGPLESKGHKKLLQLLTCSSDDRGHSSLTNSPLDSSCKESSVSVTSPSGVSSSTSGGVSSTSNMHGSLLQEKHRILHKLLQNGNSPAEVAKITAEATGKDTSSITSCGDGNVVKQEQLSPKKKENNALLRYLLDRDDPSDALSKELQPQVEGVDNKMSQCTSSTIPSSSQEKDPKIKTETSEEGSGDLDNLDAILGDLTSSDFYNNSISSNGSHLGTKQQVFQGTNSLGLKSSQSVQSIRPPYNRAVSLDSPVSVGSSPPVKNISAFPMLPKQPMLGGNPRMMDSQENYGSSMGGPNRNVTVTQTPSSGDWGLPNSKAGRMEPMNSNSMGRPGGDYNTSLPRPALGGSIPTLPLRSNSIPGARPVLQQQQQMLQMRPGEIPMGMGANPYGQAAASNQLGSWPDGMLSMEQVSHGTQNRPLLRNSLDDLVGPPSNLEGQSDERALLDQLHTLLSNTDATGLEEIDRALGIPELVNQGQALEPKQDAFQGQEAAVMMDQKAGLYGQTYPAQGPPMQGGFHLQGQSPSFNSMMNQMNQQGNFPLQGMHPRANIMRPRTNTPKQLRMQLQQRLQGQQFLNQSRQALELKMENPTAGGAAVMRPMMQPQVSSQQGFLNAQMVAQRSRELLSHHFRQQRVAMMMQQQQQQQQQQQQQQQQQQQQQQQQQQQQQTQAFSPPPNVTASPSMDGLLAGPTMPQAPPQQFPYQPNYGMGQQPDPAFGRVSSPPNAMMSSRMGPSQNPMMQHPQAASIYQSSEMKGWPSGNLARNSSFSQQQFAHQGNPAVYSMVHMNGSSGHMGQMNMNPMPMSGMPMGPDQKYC
# Chain of Peroxisome proliferator-activated receptor gamma/Nuclear receptor coactivator 2 (P37231 whole entry): as the sequence (P37231 whole entry) above
# Chain of Peroxisome proliferator-activated receptor gamma/Nuclear receptor coactivator 2 (Q15596 whole entry, further chain): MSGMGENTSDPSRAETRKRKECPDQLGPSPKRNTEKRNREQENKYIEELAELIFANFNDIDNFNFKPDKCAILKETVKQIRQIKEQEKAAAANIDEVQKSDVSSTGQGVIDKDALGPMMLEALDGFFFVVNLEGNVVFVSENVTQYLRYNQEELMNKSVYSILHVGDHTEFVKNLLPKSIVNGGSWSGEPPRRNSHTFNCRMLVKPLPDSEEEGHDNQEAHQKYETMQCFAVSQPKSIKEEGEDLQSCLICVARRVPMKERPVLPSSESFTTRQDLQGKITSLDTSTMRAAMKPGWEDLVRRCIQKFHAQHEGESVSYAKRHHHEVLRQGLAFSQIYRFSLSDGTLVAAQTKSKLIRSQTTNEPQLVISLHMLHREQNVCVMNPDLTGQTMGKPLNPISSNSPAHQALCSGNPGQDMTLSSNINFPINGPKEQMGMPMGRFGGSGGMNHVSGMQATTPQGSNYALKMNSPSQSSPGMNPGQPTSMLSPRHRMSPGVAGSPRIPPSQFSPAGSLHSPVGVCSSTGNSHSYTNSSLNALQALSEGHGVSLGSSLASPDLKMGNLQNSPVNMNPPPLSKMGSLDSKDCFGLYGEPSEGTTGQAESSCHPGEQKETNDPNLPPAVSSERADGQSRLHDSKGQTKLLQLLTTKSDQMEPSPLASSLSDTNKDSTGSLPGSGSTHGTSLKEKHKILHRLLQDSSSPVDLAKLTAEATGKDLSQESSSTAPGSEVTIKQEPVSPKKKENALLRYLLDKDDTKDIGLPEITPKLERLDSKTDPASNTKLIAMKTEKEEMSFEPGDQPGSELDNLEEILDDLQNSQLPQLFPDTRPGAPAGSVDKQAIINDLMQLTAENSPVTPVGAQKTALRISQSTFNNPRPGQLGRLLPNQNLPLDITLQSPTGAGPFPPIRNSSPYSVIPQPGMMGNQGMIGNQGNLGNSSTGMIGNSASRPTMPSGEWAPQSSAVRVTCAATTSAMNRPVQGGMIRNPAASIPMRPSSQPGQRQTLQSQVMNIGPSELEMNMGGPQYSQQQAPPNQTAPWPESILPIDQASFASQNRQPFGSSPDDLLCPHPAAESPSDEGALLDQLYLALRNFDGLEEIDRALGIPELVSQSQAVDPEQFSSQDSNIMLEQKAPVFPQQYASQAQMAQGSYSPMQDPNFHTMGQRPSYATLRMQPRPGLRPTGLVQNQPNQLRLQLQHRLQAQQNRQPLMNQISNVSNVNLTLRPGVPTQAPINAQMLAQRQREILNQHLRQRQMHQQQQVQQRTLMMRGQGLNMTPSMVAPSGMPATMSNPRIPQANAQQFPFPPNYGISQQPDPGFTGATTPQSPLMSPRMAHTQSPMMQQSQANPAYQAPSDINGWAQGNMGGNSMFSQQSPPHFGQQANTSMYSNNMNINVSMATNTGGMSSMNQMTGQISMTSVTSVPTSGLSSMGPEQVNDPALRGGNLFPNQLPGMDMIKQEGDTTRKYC
structure (smiles),measurement,setting,value
CC/C(=C/c1sc2ccc(C)cc2[n+]1CCO)SC,EC50,[1],> 100 µM (not active)
same,AC50,[2],> 380 µM (inactive)
same,EC50,[3],14.2 µM (active)
COc1ccc(CCNc2nnc(Sc3nnnn3-c3ccccc3)s2)cc1OC,EC50,[4],5.51 µM (active)
same,EC50,[5],2.95 µM (active)
same,EC50,[6],10.8 µM (active)
same,EC50,[7],5.09 µM (active)
same,EC50,[8],3.24 µM (active)
same,IC50,[9],2.49 µM (active)
same,EC50,[10],2.35 µM (inconclusive)
same,EC50,[11],2.38 µM (active)
same,IC50,[12],> 80 µM (inactive)
same,EC50,[13],0.616 µM (active)
same,AC50,[14],4.21 µM (active)
Cc1cc(Nc2cccc(Cl)c2)nc(NCc2ccccc2)n1,IC50,[15],> 42 µM (not active)
same,EC50,[16],0.177 µM (active)
same,EC50,[17],> 60 µM (inconclusive)
same,AC50,[18],5.51 µM (active)
same,AC50,[19],3.21 µM (active)
same,AC50,[20],1.64 µM (active)
same,AC50,[21],53 µM (active)
same,AC50,[22],6.41 µM (active)
COc1ccc2nc(C)cc(SCC(=O)Nc3c(C)cc(C)cc3C)c2c1,EC50,[23],27.8 µM (not active)
same,EC50,[24],55.2 µM (not active)
same,EC50,[25],> 79.4 µM (not active)
same,EC50,[1],> 100 µM (not active)
Cc1ccc2[nH]c(SCC(=O)Nc3ccc4c(c3)CCC4)nc2c1,IC50,[26],> 100 µM (active)
CC(=O)O[C@H]1C(=O)[C@@]2(C)C([C@H](OC(=O)c3ccccc3)[C@]3(O)C[C@H](OC(=O)[C@H](O)[C@@H](NC(=O)c4ccccc4)c4ccccc4)C(C)=C1C3(C)C)[C@]1(OC(C)=O)CO[C@@H]1C[C@H]2O (stereo partly drawn),EC50,[4],< 0.1 µM (active)
same,EC50,[27],0.268 µM (active)
same,EC50,[28],0.222 µM (active)
same,EC50,[7],< 0.1 µM (active)
same,EC50,[16],< 0.1 µM (active)
same,IC50,[9],0.0719 µM (active)
same,EC50,[29],0.279 µM (active)
same,IC50,[12],> 80 µM (inactive)
same,EC50,[30],< 0.004 µM (active)
Cc1nc2ccc(NC(=O)c3cc(S(=O)(=O)N(C)c4ccccc4)ccc3Cl)cc2s1,EC50,[31],2.55 µM (active)
same,IC50,[32],5.43 µM (active)
same,IC50,[15],> 42 µM (not active)
same,IC50,[33],> 20 µM (inactive)
same,EC50,[34],> 20 µM (inactive)
same,IC50,[35],3.91 µM (inactive)
same,IC50,[36],> 20 µM (inactive)
same,AC50,[19],1.72 µM (active)
same,AC50,[37],2.17 µM (active)
Cn1cccc1Cc1nnc(SCC(=O)NCc2ccccc2Cl)n1-c1ccc(F)cc1,EC50,[38],> 120 µM (not active)
O=C(O)C1CCCCC1C(=O)Nc1ccccc1Nc1ccccc1 (stereo not drawn),IC50,[26],> 100 µM (active)
O=C(NC(=S)Nc1ccc(NC(=O)c2ccco2)cc1)c1ccccc1,EC50,[38],> 120 µM (not active)
